Test results from US11999758B2, “Inhibitors of the YAP/TAZ-TEAD interaction and their use in the treatment of cancer” (INVENTIVA, priority 2018, dated 2024).

Target: T1, YAP-TEAD interaction (Homo sapiens, UniProt P28347)
T1 construct: expressed in transfected cells; host or cells: HEK293 GripTite 293 MSR (Invitrogen R795-07)
Experiment: Cell-based TEAD-GAL4 transactivation assay (luciferase reporter)
Conditions: HEK293 cells transfected with TEAD1-Gal4, YAP mutant (S127A, S397A) and luciferase reporter, compounds 0.1 μM to 30 μM; for Emax: HEK293, 24 h, read-out: TEAD-GAL4 Transactivation activity Max Act; for IC50: 24 h
Method: To identify inhibitors of YAP-TEAD interaction, a transient transactivation assay was carried out on HEK293 cell line (HEK293 GripTite™ 293 MSR (Invitrogen R795-07)) using plasmids containing the full length TEAD1 sequences, the full length YAP mutant (S127A, S397A) and a luciferase gene reporter. All expression constructs were performed into a pSG5 backbone plasmid in which the SV40 promoter was replaced by the CMV promoter. The TEAD1 construct was prepared by cloning the full-length human TEAD1 cDNA in fusion with the Gal4 DNA Binding Domain (AA 1-148) into pSG5_CMV to create the TEAD1 (FL)_hum_pSG5Gal4_CMV. The full-length YAP mutant (S127A, S397A) was also cloned into pSG5_CMV to create the YAP (FL)_hum_pSG5_mutS127A_S397A_CMV. The reporter plasmid GAL4(5×RE)_TK(−105/+56)_pGL3-Basic contains 5 copies of the GAL4 responsive element (5′-TCGGAGGACAGTACTCC-3′) upstream of the thymidine kinase (TK) promoter (−105/+56) inserted in a pGL3-Basic vector. To evaluate the selectivity of our compounds in blocking the YAP-TEAD interaction, a counter-screening protein-protein interaction transactivation assay was also established. Briefly, two other expression plasmids, the pBD-P53 which expresses the P53 (AA 72-390) in fusion with Gal4 and the pAD-SV40T which expresses the SV40 large T antigen (AA 84-708,AgT), were created. HEK293 cells were seeded at 5×10^4 cells/well in 96 well plates (assay plates) in DMEM medium containing 4.5 g/L D-glucose, 10% high inactivated (HI) fetal bovine serum 1% Glutamax, 1% non-essential amino acid and 1% sodium pyruvate and 0.5% penicillin/streptomycin at 37° C. in a humidified atmosphere of 8% CO2. After 24 h, transfections were performed using Jet-PEI as transfectant (101B-010 Polyplus Transfection), according to the instructions of the manufacturer (N/P=10) and a ratio YAP/TEAD=10 (per well: 50 ng of YAP(FL), 5 ng of TEAD(FL) and 50 ng of reporter plasmid). Six hours after cell transfection, the plates (‘assay plate’) were washed with 100 μl PBS per well and cells were treated with compounds in semi-log from 0.1 μM to 30 μM or DMSO 0.5% as control in DMEM, 4.5 g/L D-Glucose without phenol red, 0.3% BSA, 1% glutamax, 1% NEAA, 1% sodium pyruvate. 24 h later, the luciferase activity was determined after addition of 100 μl of Steady Glo™ luciferase assay system (Promega E2550) according to the manufacturer's directions. Luciferase activity in cell extracts was measured by reading luminescence using the Envision device.
The cellular response was determined by fitting the concentration response curves using a 3-parameter curve fit equation and determining the concentration that inhibited the luciferase activity by 50%.

T1 sequence (P28347 whole entry): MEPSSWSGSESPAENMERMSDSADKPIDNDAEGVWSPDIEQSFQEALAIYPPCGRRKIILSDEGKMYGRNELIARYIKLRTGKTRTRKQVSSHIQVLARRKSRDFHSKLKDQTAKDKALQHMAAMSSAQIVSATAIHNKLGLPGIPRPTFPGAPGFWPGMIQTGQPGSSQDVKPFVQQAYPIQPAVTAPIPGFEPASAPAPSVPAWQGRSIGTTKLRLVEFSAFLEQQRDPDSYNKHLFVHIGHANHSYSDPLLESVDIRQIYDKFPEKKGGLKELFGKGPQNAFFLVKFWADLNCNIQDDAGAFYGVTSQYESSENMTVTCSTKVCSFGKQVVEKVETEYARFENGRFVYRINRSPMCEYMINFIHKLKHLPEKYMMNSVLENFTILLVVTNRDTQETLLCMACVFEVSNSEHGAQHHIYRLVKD

| SMILES | Emax [%] | IC50 [µM] |
| --- | --- | --- |
| COc1ccc2c(c1)C(N(C)/N=C/c1ccc3c(c1)COB3O)=NS2(=O)=O [Ex 37, N-[(E)-(1-hydroxy-3H-2,1-benzoxaborol-5-yl)methyleneamino]-5-methoxy-N-methyl-1,1-dioxo-1,2-benzothiazol-3-amine] | 92 | 4.55 |
| CCc1csc2c(N(C)/N=C/c3ccc4c(c3)COB4O)ncnc12 [Ex105, 7-ethyl-N-[(E)-(1-hydroxy-3H-2,1-benzoxaborol-5-yl)methyleneamino]-N-methyl-thieno[3,2-d]pyrimidin-4-amine] | 83 | 0.51 |
| COc1cc(/C=N/N(CC(C)C)C2=NS(=O)(=O)c3ccccc32)ccc1B1OC(=O)CN(C)CC(=O)O1 [Ex 61, 2-[4-[(E)-[(1,1-dioxo-1,2-benzothiazol-3-yl)-isobutyl-hydrazono]methyl]-2-methoxy-phenyl]-6-methyl-1,3,6,2-dioxazaborocane-4,8-dione] | 87 | 6.63 |
| COCC1CC(n2c(=O)[nH]c3c(N(C)/N=C/c4ccc5c(c4)COB5O)ncnc32)C1 (stereo not drawn) [Ex108, 6-[[(E)-(1-hydroxy-3H-2,1-benzoxaborol-5-yl)methyleneamino]-methyl-amino]-9-[3-(methoxymethyl)cyclobutyl]-7H-purin-8-one] | 82 | 2.59 |
| CC(C)CN(/N=C/c1ccc2c(c1)COB2O)c1ncnc2ccsc12 [Ex 35, N-[(E)-(1-hydroxy-3H-2,1-benzoxaborol-5-yl)methyleneamino]-N-isobutyl-thieno [3,2-d]pyrimidin-4-amine] | 87 | 1.36 |
| CN(/N=C/c1ccc2c(c1)COB2O)c1ncnc2c1CCO2 [Ex101, N-[(E)-(1-hydroxy-3H-2,1-benzoxaborol-5-yl)methyleneamino]-N-methyl-5,6-dihydrofuro[2,3-d]pyrimidin-4-amine] | 94 | 0.9 |
| CCN(/N=C/c1ccc2c(c1)COB2O)c1ncnc2c1cnn2C [Ex 41, N-ethyl-N-[(E)-(1-hydroxy-3H-2,1-benzoxaborol-5-yl)methyleneamino]-1-methyl-pyrazolo[3,4-d]pyrimidin-4-amine] | 83 | 0.57 |
| CCCn1ccc2c(N(CC)/N=C/c3ccc4c(c3)COB4O)ncnc21 [Ex84, N-ethyl-N-[(E)-(1-hydroxy-3H-2,1-benzoxaborol-5-yl)methyleneamino]-7-propyl-pyrrolo[2,3-d]pyrimidin-4-amine] | 85 | 1.03 |
| CC1CCC(c2ccc3c(c2)COB3O)=NN1c1ncnc2occc12 (stereo not drawn) [Ex117, 4-[6-(1-hydroxy-3H-2,1-benzoxaborol-5-yl)-3-methyl-4,5-dihydro-3H-pyridazin-2-yl]furo[2,3-d]pyrimidine] | 82 | 0.69 |
| CN(/N=C/c1ccc2c(c1)COB2O)c1ncnc2c1CCC(=O)N2 [Ex100, 4-[[(E)-(1-hydroxy-3H-2,1-benzoxaborol-5-yl)methyleneamino]-methyl-amino]-6,8-dihydro-5H-pyrido[2,3-d]pyrimidin-7-one] | 85 | 1.41 |
| COc1cc(C2=NN(c3ncnc4c(OC)cccc34)C(C)CC2)ccc1B(O)O (single isomer, unassigned; isomer 1) [Ex124, [2-methoxy-4-[2-(8-methoxyquinazolin-4-yl)-3-methyl-4,5-dihydro-3H-pyridazin-6-yl]phenyl]boronic acid (isomer 1)] | 93 | 7.27 |
| COc1cc(/C=N/N(CC(C)C)c2ncnc3c(C)csc23)ccc1B(O)O [Ex67, [4-[(E)-[isobutyl-(7-methylthieno[3,2-d]pyrimidin-4-yl)hydrazono]methyl]-2-methoxy-phenyl]boronic acid] | 89 | 3.82 |
| CN(/N=C/c1ccc2c(c1)COB2O)c1ncnc2c(N3CCOCC3)csc12 [Ex104, N-[(E)-(1-hydroxy-3H-2,1-benzoxaborol-5-yl)methyleneamino]-N-methyl-7-morpholino-thieno[3,2-d]pyrimidin-4-amine] | 79 | 1.76 |
| CCN(/N=C/c1ccc2c(c1)COB2O)c1ncnc2c1ccn2CC [Ex85, N,7-diethyl-N-[(E)-(1-hydroxy-3H-2,1-benzoxaborol-5-yl)methyleneamino]pyrrolo [2,3-d]pyrimidin-4-amine] | 81 | 0.61 |
| COc1cc(C2=NN(C3=NS(=O)(=O)c4ccccc43)CC(C)O2)ccc1B(O)O (stereo not drawn) [Ex 58, [4-[4-(1,1-dioxo-1,2-benzothiazol-3-yl)-6-methyl-5,6-dihydro-1,3,4-oxadiazin-2-yl]-2-methoxy-phenyl]boronic acid] | 81 | 3.24 |
| CCN(/N=C/c1ccc2c(c1)COB2O)c1ncnc2c(OC)cccc12 [Ex 34, N-ethyl-N-[(E)-(1-hydroxy-3H-2,1-benzoxaborol-5-yl)methyleneamino]-8-methoxy-quinazolin-4-amine] | 81 | 1.12 |
| COc1cnnc(N(C)/N=C/c2ccc3c(c2)COB3O)c1 [Ex 60, N-[(E)-(1-hydroxy-3H-2,1-benzoxaborol-5-yl)methyleneamino]-5-methoxy-N-methyl-pyridazin-3-amine] | 79 | 5 |
| CCN(/N=C/c1ccc2c(c1)COB2O)c1ncnc2c3c(sc12)CCCC3 [Ex91, N-ethyl-N-[(E)-(1-hydroxy-3H-2,1-benzoxaborol-5-yl)methyleneamino]-6,7,8,9-tetrahydrobenzothiopheno[3,2-d]pyrimidin-4-amine] | 85 | 0.64 |
| CCN(/N=C/c1ccc2c(c1)COB2O)c1ncnc2c1ccn2C [Ex 44, N-ethyl-N-[(E)-(1-hydroxy-3H-2,1-benzoxaborol-5-yl)methyleneamino]-7-methyl-pyrrolo[2,3-d]pyrimidin-4-amine] | 78 | 0.92 |
| CC(C)CN(/N=C/c1ccc2c(c1)CCCOB2O)C1=NS(=O)(=O)c2ccccc21 [Ex 47, N-[(E)-(1-hydroxy-4,5-dihydro-3H-2,1-benzoxaborepin-7-yl)methyleneamino]-N-isobutyl-1,1-dioxo-1,2-benzothiazol-3-amine] | 73 | – |
| Cc1ccc2c(c1)C(N(C)/N=C/c1ccc3c(c1)COB3O)=NS2(=O)=O [Ex 36, N-[(E)-(1-hydroxy-3H-2,1-benzoxaborol-5-yl)methyleneamino]-N,5-dimethyl-1,1-dioxo-1,2-benzothiazol-3-amine] | 60 | – |
| CCN(/N=C/c1ccc2c(c1)COB2O)c1ncnc2cc(F)ccc12 [Ex89, N-ethyl-7-fluoro-N-[(E)-(1-hydroxy-3H-2,1-benzoxaborol-5-yl)-methyleneamino]quinazolin-4-amine] | 85 | 0.82 |
| CCN(/N=C/c1ccc(B(O)O)c(OC)c1)C1=NS(=O)(=O)c2ccccc21 [Ex 4, [4-[(E)-[(1,1-dioxo-1,2-benzothiazol-3-yl)-ethyl-hydrazono]methyl]-2-methoxy-phenyl] boronic acid] | 76 | 6.16 |
| COc1cc(C2=NN(c3ncnc4cc(F)ccc34)CC(C)O2)ccc1B(O)O (stereo not drawn) [Ex74, [4-[4-(7-fluoroquinazolin-4-yl)-6-methyl-5,6-dihydro-1,3,4-oxadiazin-2-yl]-2-methoxy-phenyl]boronic acid] | 83 | 2.36 |
| CCC(C)N(/N=C/c1ccc(B(O)O)c(OC)c1)C1=NS(=O)(=O)c2ccccc21 (stereo not drawn) [Ex 16, [4-[(E)-[(1,1-dioxo-1,2-benzothiazol-3-yl)-sec-butyl-hydrazono]methyl]-2-methoxyphenyl]boronic acid] | 76 | 4.16 |
| CC(C)CN(/N=C/c1ccc(B(O)O)cc1)C1=NS(=O)(=O)c2ccccc21 [Ex 8, [4-[(E)-[(1,1-dioxo-1,2-benzothiazol-3-yl)-isobutyl-hydrazono]methyl]-phenyl] boronic acid] | 74 | – |
| CC1CCC(c2ccc3c(c2)COB3O)=NN1c1ncnc2ccsc12 (stereo not drawn) [Ex121, 4-[6-(1-hydroxy-3H-2,1-benzoxaborol-5-yl)-3-methyl-4,5-dihydro-3H-pyridazin-2-yl]thieno[3,2-d]pyrimidine] | 80 | 0.72 |
